# Test system: Staphylococcus aureus or Streptococcus species
# Experiment: Murine Assay: in vivo antimicrobial activity, survival of mice infected intraperitoneally with bacteria
# Conditions: not given
# Method: Antimicrobial activity was tested in vivo using the Murine Assay procedure. Groups of female mice (six mice of 18-20 grams each) were injected intraperitoneally with bacteria which were thawed just prior to use and suspended in brain heart infusion with 4% brewers yeast (Staphylococcus aureus) or brain heart infusion (Streptococcus species). Antibiotic treatment at six dose levels per drug was administered one hour and five hours after infection by either oral intubation or subcutaneous routes. Survival was observed daily for six days. ED50 values based on mortality ratios were calculated using probit analysis. The subject compounds are compared against well-known antimicrobials vancomycin and U-100592 as controls. See “Upjohn Oxazolidinone Antibacterial Agent”, posters presented at the 35th Interscience Conference on Antimicrobial Agents and Chemotherapy.
row,Molecule,ED50 [mg/kg]
1,"COC(=O)N1CC(c2ccc(N3C[C@H](CNC(C)=O)OC3=O)cc2F)C1 [Example 83, (S)-N-[[3-[3-Fluoro-4-[1-(methoxycarbonyl)-3-azetidinyl]phenyl]-2-oxo-5-oxazolidinyl]methyl]acetamide]",7.5

# Same assay, conditions: Table 1; female mice; treatment 1 h and 5 h after infection, oral intubation or subcutaneous; survival over six days; probit analysis of mortality ratios
row,Molecule,ED50 [mg/kg]
1,"CC(=O)NC[C@H]1CN(c2ccc(C3=CCN(C(=O)CO)CC3)c(F)c2)C(=O)O1 [Example 40, (S)-(−)-N-[[3-[4-[1-(Hydroxyacetyl)-3,6-dihydro-2H-pyridin-4-yl]-3-fluoropheny]-2-oxo-5-oxazolidinyl]methyl]acetamide]",1.00
2,"CC(=O)NC[C@H]1CN(c2ccc(C3(C)CN(C(=O)C(Cl)Cl)C3)c(F)c2)C(=O)O1 [Example 6, (S)-N-[[3-[3-Fluoro-4-[1-(dichloroacetyl)-3-(3-methyl) -azetidinyl]-phenyl]-2-oxo-5-oxazolidinyl]methyl]-acetamide]",>20.00
3,"CC(=O)NC[C@H]1CN(c2ccc(C3(C)CN(CC#N)C3)c(F)c2)C(=O)O1 [Example 12, (S)-N-[[3-[3-Fluoro-4-[1-(cyanomethyl)-3-(3-methyl) -azetidinyl]-phenyl]-2-oxo-5-oxazolidinyl]methyl]-acetamide]",20.00
4,"CC(=O)NC[C@H]1CN(c2ccc(C3(C)CN(C(C)=O)C3)c(F)c2)C(=O)O1 [Example 10, (S)-N-[[3-[3-Fluoro-4-[1-acetyl-3-(3-methyl)-azetidinyl]-phenyl]-2-oxo-5-oxazolidinyl]methyl]-acetamide]",20.00
5,COC(=O)N1CC(C)(c2ccc(N3C[C@H](CNC(C)=O)OC3=O)cc2F)C1 [Example 3],5.00
6,"CC(=O)NC[C@H]1CN(c2ccc(C3(C)CN(C=O)C3)c(F)c2)C(=O)O1 [Example 5, (S)-N-[[3-[3-Fluoro-4-[1-(formyl)-3-(3-methyl)-azetidinyl]-phenyl]-2-oxo-5-oxazolidinyl]methyl]-acetamide]",3.60
7,"COCC(=O)N1CC(C)(c2ccc(N3C[C@H](CNC(C)=O)OC3=O)cc2F)C1 [Example 4, (S)-N-[[3-[3-Fluoro-4-[1-(methoxyacetyl)-3-(3-methyl) -azetidinyl]-phenyl]-2-oxo-5-oxazolidinyl]methyl]-acetamide]",>20.00
8,"CC(=O)NC[C@H]1CN(c2ccc(C3(C)CN(CCF)C3)c(F)c2)C(=O)O1 [Example 11, (S)-N-[[3-[3-Fluoro-4-[1-(2-fluoroethyl)-3-(3-methyl) -azetidinyl]-phenyl]-2-oxo-5-oxazolidinyl]methyl]-acetamide]",>20.00
9,"CC(=O)NC[C@H]1CN(c2ccc(C3(C)CN(c4ncc([N+](=O)[O-])s4)C3)c(F)c2)C(=O)O1 [Example 13, (S)-N-[[3-[3-Fluoro-4-[1-(5-nitro-2-thiazolyl)-3-(3-methyl) -azetidinyl]-phenyl]-2-oxo-5-oxazolidinyl]methyl]-acetamide]",>10.00
10,"CC(=O)NC[C@H]1CN(c2ccc(C3(C)CN(C(=O)CO)C3)c(F)c2)C(=O)O1 [Example 16, (S)-N-[[3-[3-Fluoro-4-[1-(hydroxyacetyl)-3-(3-methyl)azetidinyl]-phenyl]-2-oxo-5-oxazolidinyl]methyl]-acetamide]",17.00

# Same assay, conditions: Table 1; female mice; treatment 1 h and 5 h after infection, oral intubation or subcutaneous; survival over six days; probit analysis of mortality ratios; read-out: ED50
row,Molecule,ED50 [mg/kg]
1,"CC(=O)NC[C@H]1CN(c2cc(F)c(C3CCN(C(=O)CO)CC3)c(F)c2)C(=O)O1 [Example 37, (S)-(−)-N-[[3-[4-[1-(Hydroxyacetyl)-4-piperidinyl]-3,5-difluorophenyl]-2-oxo-5-oxazolidinyl]methyl]acetamide]",8.7
2,"CC(=O)NC[C@H]1CN(c2ccc(C3CCN(C=O)CC3)c(F)c2)C(=O)O1 [Example 29, (S)-(−)-N-[[3-[4-[1-(Formyl)-4-piperidinyl]-3-fluorophenyl]-2-oxo-5-oxazolidinyl]methyl]acetamide]",5
3,"CC(=O)NC[C@H]1CN(c2ccc(C3=CCN(C(=O)COC(C)=O)CC3)c(F)c2)C(=O)O1 [Example 39, (S)-(−)-N-[[2-Oxo-3-[3-fluoro-4-[-1-[(acetoxy)acetyl]-3,6-dihydro-2H-pyridin-4-yl]phenyl]-5-oxazolidinyl]methyl]acetamide]",3
4,"CC(=O)NC[C@H]1CN(c2ccc(C3CCN(C(=O)COCc4ccccc4)CC3)c(F)c2)C(=O)O1 [Example 21, (S)-(−)-N-[[3-[4-[1-[(Benzyloxy)acetyl]-4-piperidinyl]-3-fluorophenyl]-2-oxo-5-oxazolidinyl]methyl]acetamide]",> 20
5,"CC(=O)NC[C@H]1CN(c2ccc(C3CCN(C(=O)c4ccno4)CC3)c(F)c2)C(=O)O1 [Example 24, (S)-(−)-N-[[3-[4-[1-(Isoxazole-5-carbonyl)-4-piperidinyl]-3-fluorophenyl]-2-oxo-5-oxazolidinyl]methyl]acetamide]",> 20
6,"CC(=O)NC[C@H]1CN(c2ccc(C3CCN(C(=O)CO)C3)c(F)c2)C(=O)O1 (stereo partly drawn) [Example 44, (5S)-N-[[3-[3-Fluoro-4-[1-(hydroxyacetyl)-3-pyrrolidinyl]phenyl]-2-oxo-5-oxazolidinyl]methyl]acetamide]",5
7,"O=C(NC[C@H]1CN(c2ccc(C3CCN(C(=O)CO)CC3)c(F)c2)C(=O)O1)C(Cl)Cl [Example 33, (S)-(−)-2,2-Dichloro-N-[[2-oxo-3-[3-fluoro-4-[1-(hydroxyacetyl)-4-piperidinyl]phenyl]-5-oxazolidinyl]methyl]acetamide]",10.6
8,"CC(=O)NC[C@H]1CN(c2ccc(C3CCN(C(=O)COC(C)=O)CC3)c(F)c2)C(=O)O1 [Example 34, (S)-(−)-N-[[2-Oxo-3-[3-fluoro-4-[1-[(acetoxy)acetyl]-4-piperidinyl]phenyl]-5-oxazolidinyl]methyl]acetamide]",6.3

# Same assay, conditions: Table 2; female mice; treatment 1 h and 5 h after infection, oral intubation or subcutaneous; survival over six days; probit analysis of mortality ratios
row,Molecule,ED50 [mg/kg]
1,"CC(=O)NC[C@H]1CN(c2ccc(C3CCOCC3)c(F)c2)C(=O)O1 [Example 48, (S)-(−)-N-[[3-[4-[Tetrahydro-2H-pyran-4-yl]-3-fluoropheny]-2-oxo-5-oxazolidinyl]methyl]acetamide]",17.50
2,"CC(=O)NC[C@H]1CN(c2ccc(C3=CC[S+]([O-])CC3)c(F)c2)C(=O)O1 (stereo partly drawn) [Example 63, (S)-(−)-N-[[3-[4-(3,6-Dihydro-2H-thiopyran-4-yl)-3-fluoropheny]-2-oxo-5-oxazolidinyl]methyl]acetamide S-oxide]",4.90
3,"CC(=O)NC[C@H]1CN(c2ccc(C3=CC[S+]([O-])CC3)cc2)C(=O)O1 (stereo partly drawn) [Example 64, (S)-(−)-N-[[3-[4-(3 6-Dihydro-2H-thiopyran-4-yl)phenyl]-2-oxo-5-oxazolidinyl]methyl]acetamide S-oxide]",4.60
4,CC(=O)NC[C@H]1CN(c2ccc(C3=CCN(C=O)CC3)c(F)c2)C(=O)O1 [Example 56],4.40
5,(S)-(−)-N-[[3-[3-Fluoro-4-(dihydrothien-3-yl)-phenyl]-2-oxo-5-oxazolidinyl]methyl]acetamide [Example 67],13.3
6,"CC(=O)NC[C@H]1CN(c2ccc(C3=CCS(=O)(=O)CC3)c(F)c2)C(=O)O1 [Example 50, (S)-(−)-N-[[3-[4-(3,6-Dihydro-2H-thiopyran-4-yl)-3-fluoropheny]-2-oxo-5-oxazolidinyl]methyl]acetamide S,S-dioxide]",2.20
7,"CC(=O)NC[C@H]1CN(c2ccc(C3=CCSCC3)c(F)c2)C(=O)O1 [Example 49, (S)-(−)-N-[[3-[4-(3,6-Dihydro-2H-thiopyran-4-yl)-3-fluoropheny]-2-oxo-5-oxazolidinyl]methyl]acetamide]",2.40

# Same assay, conditions: Table 2; female mice; treatment 1 h and 5 h after infection, oral intubation or subcutaneous; survival over six days; probit analysis of mortality ratios; read-out: ED50
row,Molecule,ED50 [mg/kg]
1,"CC(=O)NC[C@H]1CN(c2ccc(C3=CCCN(C(=O)CO)CC3)c(F)c2)C(=O)O1 [Example 78, (S)-(−)-N-[[3-[4-[1-(Hydroxyacetyl)-2,3,6,7-tetrahydro-1H-azepin-4-yl]-3-fluorophenyl]-2-oxo-5-oxazolidinyl]methyl]acetamide]",6
2,"CC(=O)NC[C@H]1CN(c2ccc(C3CCOCC3)cc2)C(=O)O1 [Example 53, (S)-(−)-N-[[3-[4-[Tetrahydro-2H-pyran-4-yl]phenyl]-2-oxo-5-oxazolidinyl]methyl]acetamide]",> 20
3,"CC(=O)NC[C@H]1CN(c2ccc(C3=CCN(C=O)CC3)cc2)C(=O)O1 [Example 61, (S)-(−)-N-[[3-[4-[1-(Formyl)-3,6-dihydro-2H-pyridin-4-yl]phenyl]-2-oxo-5-oxazolidinyl]methyl]acetamide]",6.1
4,"CC(=O)NC[C@H]1CN(c2ccc(C3=CC[S+]([O-])C3)c(F)c2)C(=O)O1 (stereo partly drawn) [68(a), (5S)-N-[[3-[3-Fluoro-4-(2,5-dihydro-1-oxido-3-thienyl)-phenyl]-2-oxo-5-oxazolidinyl]methyl]acetamide]",3.5
5,"CC(=O)NC[C@H]1CN(c2ccc(C3(F)CCN(C=O)CC3)c(F)c2)C(=O)O1 [Example 74, (S)-(−)-N-[[3-[4-[1-Formyl-4-fluoro-4-piperidinyl]-3-fluorophenyl]-2-oxo-5-oxazolidinyl]methyl]acetamide]",10.3
6,"CC(=O)NC[C@H]1CN(c2ccc(C3=CCOCC3)cc2)C(=O)O1 [Example 52, (S)-(−)-N-[[3-[4-(3,6-Dihydro-2H-pyran-4-yl)phenyl]-2-oxo-5-oxazolidinyl]methyl]acetamide]",4
7,"CC(=O)NC[C@H]1CN(c2ccc(C3=CCN(C(=O)COC(C)=O)CC3)cc2)C(=O)O1 [Example 59, (S)-(−)-N-[[2-Oxo-3-[4-[1-[(acetoxy)acetyl]-3,6-dihydro-2H-pyridin-4-yl]phenyl]-5-oxazolidinyl]methyl]acetamide]",4.2
